Laboratory results reported in the supplement of paper PMC10307832.

Experiments:
Test in all cases: relative viability (nuclei count vs DMSO), 5 days (fraction); higher = more cells survive
[1] = compound: Cn1cc(-c2cnn3c(N)c(Br)c([C@@H]4CCCNC4)nc23)cn1 + O=C(CCCCCCC(=O)Nc1ccccc1)NO [Vorinostat] (partner 1 µM)
In short: (§1)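 Lung cancer cell lines in 1536-well plates were dosed by pin tool the day after seeding, either with one drug alone or with a fixed anchor-drug dose plus five library-drug doses (not always all listed) in √10 steps. After 5 days, cells were fixed and their nuclei stained in one step (final 0.05% Triton X-100, 1% formaldehyde, 1 ug/ml Hoechst), then counted on 4× images. Relative viability is the nuclei count in treated wells divided by that in vehicle wells. Values are medians of duplicate plates.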

[2] = compound: Cn1cc(-c2cnn3c(N)c(Br)c([C@@H]4CCCNC4)nc23)cn1 + C[C@]1(O)C[C@@H](c2nc(-c3ccc4ccc(-c5ccccc5)nc4c3)c3c(N)nccn32)C1 [Linsitinib] (partner 1 µM)
In short: as §1

[3] = compound: Cn1cc(-c2cnn3c(N)c(Br)c([C@@H]4CCCNC4)nc23)cn1 + CC1(C)CCC(c2ccc(Cl)cc2)=C(CN2CCN(c3ccc(C(=O)NS(=O)(=O)c4ccc(N[C@H](CCN5CCOCC5)CSc5ccccc5)c(S(=O)(=O)C(F)(F)F)c4)cc3)CC2)C1 [Navitoclax] (partner 0.5 µM)
In short: as §1

[4] = compound: Cn1cc(-c2cnn3c(N)c(Br)c([C@@H]4CCCNC4)nc23)cn1 + Cc1nc(NC(=O)N2CCC[C@H]2C(N)=O)sc1-c1ccnc(C(C)(C)C(F)(F)F)c1 [Alpelisib] (partner 2 µM)
In short: as §1

Cell Line: HCC-15
- relative viability ([1]; first compound 0.05 µM): 0.922
- relative viability ([1]; first compound 0.1581 µM): 1
- relative viability ([1]; first compound 0.5 µM): 0.9
- relative viability ([1]; first compound 1.581 µM): 0.804
- relative viability ([1]; first compound 5 µM): 0.705
- relative viability ([2]; first compound 0.05 µM): 0.98
- relative viability ([2]; first compound 0.1581 µM): 0.997
- relative viability ([2]; first compound 0.5 µM): 0.824
- relative viability ([2]; first compound 1.581 µM): 0.838
- relative viability ([2]; first compound 5 µM): 0.829
- relative viability ([3]; first compound 0.05 µM): 0.803
- relative viability ([3]; first compound 0.1581 µM): 0.792
- relative viability ([3]; first compound 0.5 µM): 0.635
- relative viability ([3]; first compound 1.581 µM): 0.626
- relative viability ([3]; first compound 5 µM): 0.669
- relative viability ([4]; first compound 0.05 µM): 0.981
- relative viability ([4]; first compound 0.1581 µM): 1.01
- relative viability ([4]; first compound 0.5 µM): 0.863
- relative viability ([4]; first compound 1.581 µM): 0.782
- relative viability ([4]; first compound 5 µM): 0.901

Cell Line: NCI-H2405
- relative viability ([1]; first compound 0.05 µM): 0.962
- relative viability ([1]; first compound 0.1581 µM): 1.01
- relative viability ([1]; first compound 0.5 µM): 0.951
- relative viability ([1]; first compound 1.581 µM): 0.847
- relative viability ([1]; first compound 5 µM): 0.668
- relative viability ([2]; first compound 0.05 µM): 0.922
- relative viability ([2]; first compound 0.1581 µM): 0.875
- relative viability ([2]; first compound 0.5 µM): 1.02
- relative viability ([2]; first compound 1.581 µM): 0.842
- relative viability ([2]; first compound 5 µM): 0.785
- relative viability ([3]; first compound 0.05 µM): 0.815
- relative viability ([3]; first compound 0.1581 µM): 0.976
- relative viability ([3]; first compound 0.5 µM): 0.904
- relative viability ([3]; first compound 1.581 µM): 0.867
- relative viability ([3]; first compound 5 µM): 0.624
- relative viability ([4]; first compound 0.05 µM): 0.816
- relative viability ([4]; first compound 0.1581 µM): 0.753
- relative viability ([4]; first compound 0.5 µM): 0.814
- relative viability ([4]; first compound 1.581 µM): 0.777
- relative viability ([4]; first compound 5 µM): 0.542

Cell Line: LXF-289
- relative viability ([1]; first compound 0.05 µM): 0.731
- relative viability ([1]; first compound 0.1581 µM): 0.795
- relative viability ([1]; first compound 0.5 µM): 0.745
- relative viability ([1]; first compound 1.581 µM): 0.746
- relative viability ([1]; first compound 5 µM): 0.757
- relative viability ([2]; first compound 0.05 µM): 0.976
- relative viability ([2]; first compound 0.1581 µM): 1.07
- relative viability ([2]; first compound 0.5 µM): 1.07
- relative viability ([2]; first compound 1.581 µM): 0.903
- relative viability ([2]; first compound 5 µM): 1.04
- relative viability ([3]; first compound 0.05 µM): 0.96
- relative viability ([3]; first compound 0.1581 µM): 1.06
- relative viability ([3]; first compound 0.5 µM): 1.07
- relative viability ([3]; first compound 1.581 µM): 0.906
- relative viability ([3]; first compound 5 µM): 1.02
- relative viability ([4]; first compound 0.05 µM): 1.08
- relative viability ([4]; first compound 0.1581 µM): 1.14
- relative viability ([4]; first compound 0.5 µM): 1.01
- relative viability ([4]; first compound 1.581 µM): 1.01
- relative viability ([4]; first compound 5 µM): 1.06

Cell Line: CAL-12T
- relative viability ([1]; first compound 0.05 µM): 0.848
- relative viability ([1]; first compound 0.1581 µM): 0.775
- relative viability ([1]; first compound 0.5 µM): 0.664
- relative viability ([1]; first compound 1.581 µM): 0.56
- relative viability ([1]; first compound 5 µM): 0.228
- relative viability ([2]; first compound 0.05 µM): 0.786
- relative viability ([2]; first compound 0.1581 µM): 0.929
- relative viability ([2]; first compound 0.5 µM): 0.809
- relative viability ([2]; first compound 1.581 µM): 0.616
- relative viability ([2]; first compound 5 µM): 0.262
- relative viability ([3]; first compound 0.05 µM): 1.36
- relative viability ([3]; first compound 0.1581 µM): 1.24
- relative viability ([3]; first compound 0.5 µM): 1.12
- relative viability ([3]; first compound 1.581 µM): 0.755
- relative viability ([3]; first compound 5 µM): 0.159
- relative viability ([4]; first compound 0.05 µM): 1.27
- relative viability ([4]; first compound 0.1581 µM): 1.29
- relative viability ([4]; first compound 0.5 µM): 0.937
- relative viability ([4]; first compound 1.581 µM): 0.716
- relative viability ([4]; first compound 5 µM): 0.228

Cell Line: COR-L23
- relative viability ([1]; first compound 0.05 µM): 0.387
- relative viability ([1]; first compound 0.1581 µM): 0.273
- relative viability ([1]; first compound 0.5 µM): 0.24
- relative viability ([1]; first compound 1.581 µM): 0.187
- relative viability ([1]; first compound 5 µM): 0.117
- relative viability ([2]; first compound 0.05 µM): 0.835
- relative viability ([2]; first compound 0.1581 µM): 1.16
- relative viability ([2]; first compound 0.5 µM): 1.05
- relative viability ([2]; first compound 1.581 µM): 0.688
- relative viability ([2]; first compound 5 µM): 0.363
- relative viability ([3]; first compound 0.05 µM): 0.854
- relative viability ([3]; first compound 0.1581 µM): 1.13
- relative viability ([3]; first compound 0.5 µM): 0.973
- relative viability ([3]; first compound 1.581 µM): 0.965
- relative viability ([3]; first compound 5 µM): 0.346
- relative viability ([4]; first compound 0.05 µM): 0.768
- relative viability ([4]; first compound 0.1581 µM): 1.09
- relative viability ([4]; first compound 0.5 µM): 0.981
- relative viability ([4]; first compound 1.581 µM): 0.589
- relative viability ([4]; first compound 5 µM): 0.306

Cell Line: NCI-H1755
- relative viability ([1]; first compound 0.05 µM): 0.869
- relative viability ([1]; first compound 0.1581 µM): 0.828
- relative viability ([1]; first compound 0.5 µM): 0.653
- relative viability ([1]; first compound 1.581 µM): 0.642
- relative viability ([1]; first compound 5 µM): 0.503
- relative viability ([2]; first compound 0.05 µM): 1.07
- relative viability ([2]; first compound 0.1581 µM): 1.04
- relative viability ([2]; first compound 0.5 µM): 0.978
- relative viability ([2]; first compound 1.581 µM): 0.924
- relative viability ([2]; first compound 5 µM): 0.972
- relative viability ([3]; first compound 0.05 µM): 1.12
- relative viability ([3]; first compound 0.1581 µM): 1.03
- relative viability ([3]; first compound 0.5 µM): 0.961
- relative viability ([3]; first compound 1.581 µM): 0.994
- relative viability ([3]; first compound 5 µM): 0.969
- relative viability ([4]; first compound 0.05 µM): 1.03
- relative viability ([4]; first compound 0.1581 µM): 1.05
- relative viability ([4]; first compound 0.5 µM): 0.817
- relative viability ([4]; first compound 1.581 µM): 0.873
- relative viability ([4]; first compound 5 µM): 0.879

Cell Line: NCI-H1437
- relative viability ([1]; first compound 0.05 µM): 0.907
- relative viability ([1]; first compound 0.1581 µM): 0.927
- relative viability ([1]; first compound 0.5 µM): 0.955
- relative viability ([1]; first compound 1.581 µM): 0.692
- relative viability ([1]; first compound 5 µM): 0.508
- relative viability ([2]; first compound 0.05 µM): 1.17
- relative viability ([2]; first compound 0.1581 µM): 1.16
- relative viability ([2]; first compound 0.5 µM): 0.954
- relative viability ([2]; first compound 1.581 µM): 0.604
- relative viability ([2]; first compound 5 µM): 0.821
- relative viability ([3]; first compound 0.05 µM): 1.15
- relative viability ([3]; first compound 0.1581 µM): 1.25
- relative viability ([3]; first compound 0.5 µM): 1.05
- relative viability ([3]; first compound 1.581 µM): 1.03
- relative viability ([3]; first compound 5 µM): 1.08
- relative viability ([4]; first compound 0.05 µM): 1.05
- relative viability ([4]; first compound 0.1581 µM): 1.02
- relative viability ([4]; first compound 0.5 µM): 0.795
- relative viability ([4]; first compound 1.581 µM): 0.576
- relative viability ([4]; first compound 5 µM): 0.761

Cell Line: NCI-H2085
- relative viability ([1]; first compound 0.05 µM): 0.801
- relative viability ([1]; first compound 0.1581 µM): 0.761
- relative viability ([1]; first compound 0.5 µM): 0.843
- relative viability ([1]; first compound 1.581 µM): 0.725
- relative viability ([1]; first compound 5 µM): 0.61
- relative viability ([2]; first compound 0.05 µM): 0.85
- relative viability ([2]; first compound 0.1581 µM): 0.885
- relative viability ([2]; first compound 0.5 µM): 0.859
- relative viability ([2]; first compound 1.581 µM): 0.824
- relative viability ([2]; first compound 5 µM): 0.779
- relative viability ([3]; first compound 0.05 µM): 1.3
- relative viability ([3]; first compound 0.1581 µM): 1.13
- relative viability ([3]; first compound 0.5 µM): 1.18
- relative viability ([3]; first compound 1.581 µM): 1.09
- relative viability ([3]; first compound 5 µM): 0.943
- relative viability ([4]; first compound 0.05 µM): 1.01
- relative viability ([4]; first compound 0.1581 µM): 1.04
- relative viability ([4]; first compound 0.5 µM): 0.955
- relative viability ([4]; first compound 1.581 µM): 0.868
- relative viability ([4]; first compound 5 µM): 0.769
